Assay results as given in the OPERA property sets (Mansouri et al. 2018).

Settings: for log10 BCF / log10 biotransformation half-life (days): fish

| SMILES | boiling point [°C] | melting point [°C] | further results |
| --- | --- | --- | --- |
| CCCCC[C@@H](O)CC | 171 | -45 | log10 vapour pressure (mmHg): -0.592 |
| CC(=O)c1ccsc1 | 210 | 60 |  |
| CCS(=O)(=O)c1nc2ccccn2c1S(=O)(=O)NC(=O)Nc1nc(OC)cc(OC)n1 |  | 201 |  |
| CCOC(=O)C(F)(F)C(F)(F)C(F)(F)F | 95 |  |  |
| CC(C)CCCl | 98.9 | -104 |  |
| CCCCCCCCCCCCCCCCCCC1CCCCC1 | 409 | 41.6 |  |
| Cc1cc(N)c2ccccc2n1 | 333 | 169 |  |
| OCC1CC23CCC1(CC2)CC3CO (centres undefined) |  |  | ready biodegradability: not readily biodegradable |
| O=Cc1ccc(O)c(Cl)c1 |  | 139 |  |
| COc1ccc(O)c(C(C)(C)C)c1 |  |  | ready biodegradability: not readily biodegradable |
| CC[Si](OC)(OC)OC | 124 |  |  |
| Oc1ccc(Br)cc1Br | 238 | 38 | ready biodegradability: not readily biodegradable |
| C=CCN=C=O | 88 |  |  |
| CCCOC(N)=O | 196 | 60 | log10 vapour pressure (mmHg): -1.26 |
| FC(F)(F)C(F)(F)C(F)(F)C(F)(F)C(F)(F)C(F)(F)C(F)(F)C(F)(F)C(F)(F)C(F)(F)I | 195 | 66 |  |
| CC(CC(=O)O)CC(=O)O |  | 87 |  |
| CCCC(C(N)=O)n1nnc2ccccc21 (centres undefined) |  | 125 |  |
| Clc1cc2cccc(Cl)c2c(Cl)c1Cl |  |  | log10 Koa: 8.65 |
| CCCCCCCCCCCCOC(=O)CCSCCC(=O)OCCCCCCCCCCCC |  | 41 | ready biodegradability: readily biodegradable |
| CCC(C)CCC(C)CC (centres undefined) | 161 |  |  |
| CCCCCCCCCCl | 204 | -39.4 | log10 vapour pressure (mmHg): -0.574 |
| COC(=O)C[C@@H](C)C(=O)OC | 196 |  |  |
| O=C(CN1CCN(Cc2ccc3c(c2)OCO3)CC1)N1c2ccccc2Sc2ccccc21 |  | 142 |  |
| C=CC1CNC(=S)O1 (centres undefined) |  | 50 |  |
| C1C2CC3C4CC5CC(C14)C(C2)C3C5 |  |  | log10 biodegradation half-life (days): 3.3 |

| SMILES | boiling point [°C] | melting point [°C] | further results |
| --- | --- | --- | --- |
| CN1C[C@@H]2C[C@H](C1)c1cccc(=O)n1C2 |  | 137 |  |
| CCOC(=O)c1c(Cl)c(Cl)c(Cl)c(Cl)c1C(=O)O |  | 94.5 |  |
| Oc1ccc(Cc2ccccc2)cc1 | 322 | 84 | ready biodegradability: not readily biodegradable; log10 BCF: 1.33; log10 biotransformation half-life (days): -0.86 |
| Nc1ncnc2c1ncn2[C@@H]1O[C@@H]2COP(=O)(O)O[C@H]2[C@H]1O |  | 220 |  |
| CC1(C)CCCCC1 | 120 | -33.3 | log10 vapour pressure (mmHg): 1.36; ready biodegradability: not readily biodegradable |
| COc1cc2c(c(O)c1OC)[C@H](C)NCC2 |  | 160 |  |
| CNC(=O)Oc1ccc(C)c(C)c1 |  | 79.5 | log10 vapour pressure (mmHg): -3.24 |
| O=C1C(Cl)=C(Cl)C(=O)c2ccccc21 |  | 195 | log10 Koc (L/kg): 3.98; log10 vapour pressure (mmHg): -5.96; ready biodegradability: not readily biodegradable |
| C=CCCC=C | 59.4 | -141 | log10 vapour pressure (mmHg): 2.34 |
| CC(O)=S | 93 |  |  |
| c1cnc2c(c1)ccc1cccnc12 |  | 117 |  |
| OC[C@@H](O)[C@@H](O)CO | 330 | 122 |  |
| C[C@@H]1CCC[C@H](C)C1 (racemic) |  | -82.8 |  |
| O=c1nn[nH]c2ccccc12 |  | 217 |  |
| CCc1nccnc1OC |  |  | log10 Henry constant (atm·m³/mol): -4.83 |
| CC(C)=CCN1CC[C@@]2(C)c3cc(O)ccc3C[C@@H]1[C@@H]2C |  | 146 |  |
| COC(=O)c1ccccc1S(=O)(=O)NC(=O)Nc1nc(OC(F)F)cc(OC(F)F)n1 |  | 196 | log10 Koc (L/kg): 1.08 |
| CCCn1c(=O)[nH]c(=O)c2[nH]cnc21 |  | 288 |  |
| C=C1C[C@@]23CC[C@H]4[C@@](C)(CCC[C@@]4(C)C(=O)O[C@@H]4O[C@H](CO)[C@@H](O)[C@H](O)[C@H]4O)[C@@H]2CC[C@]1(O[C@@H]1O[C@H](CO)[C@@H](O)[C@H](O)[C@H]1O[C@@H]1O[C@H](CO)[C@@H](O)[C@H](O)[C@H]1O)C3 |  | 198 |  |
| O=NN1CCC[C@H]1c1cccnc1 |  | 47 |  |
| C=Cc1ccc(CC)cc1 | 192 | -49.7 | log10 vapour pressure (mmHg): -0.0246; ready biodegradability: not readily biodegradable; log10 BCF: 2.69 |
| O=[N+]([O-])c1cc(Cl)c(Cl)c(Cl)c1Cl |  |  | log10 Koc (L/kg): 4.23; log10 BCF: 1.9; log10 biotransformation half-life (days): -0.69 |
| CCCCC(C)S (centres undefined) | 142 | -147 |  |
| Clc1ccc(Cl)c(-c2ccccc2)c1Cl |  |  | log10 Henry constant (atm·m³/mol): -3.66 |
| O=C1C=CCC1 | 136 |  |  |

| SMILES | boiling point [°C] | melting point [°C] | further results |
| --- | --- | --- | --- |
| CN(C)CCCN1c2ccccc2Sc2ccc(Cl)cc21.Cl |  | 195 |  |
| CC1(C)OC(=O)NC1=O |  | 76.5 |  |
| Oc1ccc(Cl)cc1Cc1cc(Cl)ccc1O |  | 178 | log10 vapour pressure (mmHg): -10; ready biodegradability: not readily biodegradable; log10 BCF: 2.28; log10 biotransformation half-life (days): -0.51 |
| CC1(C)CC(=O)NC(=O)C1 |  | 145 |  |
| CCCNC(=O)NS(=O)(=O)c1ccc(Cl)cc1 |  | 128 |  |
| CNC(=O)Oc1cccc(N=CN(C)C)c1.Cl |  |  | log10 vapour pressure (mmHg): -7.92 |
| C=CCCCCO |  |  | ready biodegradability: readily biodegradable |
| COc1cc(C(C)=O)ccc1O | 297 | 115 |  |
| C#C[C@]1(O)CC[C@H]2[C@@H]3CCC4=Cc5oncc5C[C@]4(C)[C@H]3CC[C@@]21C |  | 226 |  |
| Clc1c(Cl)c(Cl)c2c(oc3c(Cl)c(Cl)c(Cl)c(Cl)c32)c1Cl |  | 258 | log10 Koa: 11.9; log10 vapour pressure (mmHg): -11.4; log10 BCF: 2.89; log10 biotransformation half-life (days): 1.22 |
| Clc1ncccn1 |  | 67 |  |
| C=CC(=O)O | 141 | 13.5 | log10 vapour pressure (mmHg): 0.599; ready biodegradability: readily biodegradable |
| COC(=O)c1cc(OC)c(OC)c(OC)c1 | 274 | 83 |  |
| COc1ccc(CC#N)cc1 | 286 |  |  |
| CCCCCCCCCCCCN1CC(C(=O)OC)CC1=O (centres undefined) |  | 27.5 |  |
| CC(=O)CC(=O)Nc1ccccc1C |  | 105 | ready biodegradability: readily biodegradable |
| CCCCc1c(C)nc(NCC)nc1O |  | 160 | log10 vapour pressure (mmHg): -5.7 |
| COc1cc(Cl)ccc1N | 260 | 52 |  |
| CC1(C)CC(N)CC(C)(C)N1 | 188 | 17 |  |
| O=Cc1ccccc1Br | 230 | 21.5 |  |
| FC(F)=C(Cl)C(F)(F)F | 6.8 | -130 |  |
| Cc1ncc(CO)c(C=O)c1O.Cl |  | 165 |  |
| N#Cc1c(F)cccc1F |  | 31 |  |
| O=c1ccc2cc3ccoc3c(O)c2o1 |  | 252 |  |
| Nc1ccc(S(=O)(=O)Nc2ccccn2)cc1 |  | 192 |  |

| SMILES | boiling point [°C] | melting point [°C] | further results |
| --- | --- | --- | --- |
| CCCC(C)=C(CC)C(C)=O | 190 |  |  |
| Brc1ccc(Oc2ccccc2)cc1Br |  |  | log10 Koa: 8.55 |
| NS(=O)(=O)c1cc2c(cc1Cl)CN(C1CCCCC1)C2=O |  | 267 |  |
| c1cscn1 | 118 |  | log10 vapour pressure (mmHg): 1.23 |
| Oc1ccc(OCc2ccccc2)cc1 |  | 122 |  |
| CC(Cl)Br (centres undefined) | 83 |  | log10 vapour pressure (mmHg): 1.93 |
| COc1cccc(C(=O)O)c1O |  | 151 |  |
| O=C(O)Cc1ccccc1O | 240 | 148 |  |
| COc1ccc2c(C(=O)c3ccc(Cl)cc3)c(C)n(CC(=O)O)c2c1 |  | 242 |  |
| CC1(C)[C@@H](O)CC[C@]2(C)[C@H]3C(=O)C=C4[C@@H]5C[C@@](C)(C(=O)O)CC[C@]5(C)CC[C@@]4(C)[C@]3(C)CC[C@@H]12 |  | 296 |  |
| Cc1cc(Cl)cc([N+](=O)[O-])c1 |  | 61 |  |
| CC(F)F | -24.9 | -117 | log10 Henry constant (atm·m³/mol): -1.69; log10 vapour pressure (mmHg): 3.66 |
| CC(C)CNCC(C)C | 140 | -73.5 | log10 vapour pressure (mmHg): 0.862; ready biodegradability: readily biodegradable |
| CCC(C)CC(C)=O (centres undefined) | 144 |  |  |
| O=S(=O)([O][Na])c1ccc2cc(O)c(S(=O)(=O)[O][Na])cc2c1 |  |  | log10 BCF: 0.3 |
| C[C@]12CC[C@H]3[C@@H](CCC4=CC(=O)CC[C@@H]43)[C@@H]1CC[C@@H]2O |  | 118 |  |
| C=CC=COC | 91.5 |  |  |
| [Se]=C=[Se] | 126 | -45.5 |  |
| C[C@@H]1C[C@H]2[C@@H]3CCC4=CC(=O)C=C[C@]4(C)[C@@]3(F)[C@@H](O)C[C@]2(C)[C@@]1(O)C(=O)CO |  | 248 |  |
| O=C(O)CCOc1ccccc1 | 240 | 97.5 |  |
| C=C(Cl)C(Cl)CCl (centres undefined) | 155 |  | log10 vapour pressure (mmHg): 0.274 |
| CC(=O)C(C)Cl (centres undefined) | 115 |  |  |
| C(=Cc1ccncc1)c1ccccc1 |  |  | ready biodegradability: readily biodegradable |
| CC1=NCCN1 | 196 | 107 |  |
| Cc1ccc2cccnc2c1 | 258 | 39 | log10 vapour pressure (mmHg): -2.05 |

| SMILES | boiling point [°C] | melting point [°C] | further results |
| --- | --- | --- | --- |
| Cc1c(Cl)c(Cl)c(Cl)c(Cl)c1Cl | 301 | 225 | log10 Henry constant (atm·m³/mol): -3.11; log10 BCF: 3.83 |
| C=C(C)c1ccccc1C | 175 |  |  |
| CCOC(=O)C(CC)C(C)=O (centres undefined) | 198 |  |  |
| S=C1NCCN1 | 347 | 203 | ready biodegradability: not readily biodegradable; log10 BCF: 0.26 |
| CS(=O)(=O)c1ccc(-c2cn3ccccc3n2)cc1 |  | 243 |  |
| CCOC(=O)C1(C)OC(=O)N(c2cc(Cl)cc(Cl)c2)C1=O (centres undefined) |  | 113 | log10 vapour pressure (mmHg): -7.02 |
| O=C1OC(=O)C2=C1CCCC2 |  | 74 |  |
| CC(C)CCC#N | 156 | -51 |  |
| CC=C(C)Cl | 64.5 | -19 |  |
| CC1CC(C)CC(C)C1 (mixture of isomers) | 141 |  |  |
| CCCCCCCCCCCC(=O)OOC(=O)CCCCCCCCCCC |  | 49 | ready biodegradability: readily biodegradable |
| O=C(O)c1ccncc1 |  | 315 |  |
| Cc1cccc(N)c1C | 222 |  | log10 vapour pressure (mmHg): -1.12; ready biodegradability: not readily biodegradable |
| CCCc1cccc(O)c1 | 228 | 26 |  |
| COc1ccc(C(=O)NCc2cccnc2)cc1C(=O)NCc1cccnc1 |  | 124 |  |
| Nc1c(Cl)cc(C(=O)O)cc1Cl |  | 292 |  |
| CC(=O)OC[C@H]1O[C@@](COC(C)=O)(O[C@H]2O[C@H](COC(C)=O)[C@@H](OC(C)=O)[C@H](OC(C)=O)[C@H]2OC(C)=O)[C@@H](OC(C)=O)[C@@H]1OC(C)=O |  | 86.5 |  |
| Clc1cc(Cl)cc(-c2c(Cl)c(Cl)cc(Cl)c2Cl)c1 |  |  | log10 Henry constant (atm·m³/mol): -4.54 |
| CN1CCNCC1 | 138 | -6 |  |
| O=C(O)C1CCNCC1 |  | 336 |  |
| O=c1ccc2ccc(O)c(O)c2o1 |  | 262 |  |
| CCCCCCC(C)C | 143 | -80.3 | log10 biodegradation half-life (days): 0.699; log10 vapour pressure (mmHg): 0.793 |
